Data from patent US8877752B2, “4(1H)-quinolones having antimalarial activity with reduced chemical resistance” (University of South Florida, priority 2011, dated 2014).
Read-outs that look alike come from different tables or passages of the source. Each block holds one compound with its values, some of them ahead of it.

Tests used:
[1] = tested on: P. falciparum TM90-C2B/Thailand (chloroquine-, mefloquine-, pyrimethamine-, and atovaquone-resistant); assay: in vitro antimalarial activity against TM90-C2B (SYBR Green I); assay type: cell-based; conditions: for EC50: Plasmodium falciparum, read-out: EC50 against TM90-C2B; for resistance index RI=EC50(TM90-C2B)/EC50(W2): RI 0.3-3.0 considered acceptable; for less potent against TM90-C2B than against W2: W2 versus TM90-C2B; for antimalarial activity against TM90-C2B (in words): comparison; for more potent against TM90-C2B compared to 27: relative to compound 27
Method: (§1) All synthesized quinolones were tested as described in Cross et al., (2010) J. Med. Chem. 53, 7076-7094 and Reid et al., (2011) Bioorg.
(§2) Parasite Culturing: P. falciparum clone W2/Indochina and TM90C2B/Thailand were grown in continuous culture using RPMI 1640 media containing 10% heat-inactivated type A+ human plasma, sodium bicarbonate (2.4 g/L), HEPES (5.94 g/L) and 4% washed human type A+ erythrocytes. Cultures were gassed with a 90% nitrogen, 5% oxygen and 5% carbon dioxide mixture followed by incubation at 37° C.
(§3) Assay Preparation: Test compounds at 5 mg/mL in DMSO were diluted at least 1:400 and then serially diluted in duplicate over 11 concentrations. P. falciparum cultures with greater than 70% ring stage parasites were diluted to 0.5-0.7% parasitemia and 1.5% hematocrit in RPMI 1640 media. In 96-well plates a volume of 90 μl/well of parasitized erythrocytes was added on top of 10 μL/well of the test compound. […] A Beckman Coulter Biomek 3000 was used to dispense test compounds, control drugs and parasitized erythrocytes into the microtiter plates. Positive and negative controls were included in each plate. […] Assay plates were placed into a plastic gassing chamber and equilibrated with 90% nitrogen, 5% oxygen and 5% carbon dioxide mixture then incubated at 37° C. for 72 hrs. The assay plates were then frozen at −80° C. until later processed for parasite growth determinations.
(§4) SYBR Green I Processing: Assay plates were removed from −80° C. storage and allowed to thaw at room temperature. Using the Beckman Biomek 3000, 100 μL was transferred from the assay plates into 96-well black assay plates. Next, 100 μl of SYBR green I (Invitrogen) in 2× lysis buffer (0.2 μl SYBR green I/mL of 2× lysis buffer (0.008% saponin, 0.08% Triton X-100, 20 mM Tris and 5 mM EDTA)) was dispensed into each well of the 96-well black assay plate using the Beckman Coulter Biomek 3000. Upon addition of SYBR green I the microtiter plates were incubated for 1 hrs. in the dark. Relative Fluorescence units (RFU) were read using a Molecular Devices Spectramax microplate reader.
(§5) Data Analysis: Data analysis was performed using a custom database manager (Dataspects, Inc). Nonlinear regression analysis was used to calculate EC50.

[2] = tested on: P. falciparum clone W2/Indochina (chloroquine- and pyrimethamine-resistant); assay: in vitro antimalarial activity against W2 (SYBR Green I); assay type: cell-based; conditions: for EC50: Plasmodium falciparum, P. falciparum W2, 72 hrs incubation; for antimalarial activity against W2 (in words): comparison; for less active against W2 in comparison to 17: relative to reference compound 17
Method: as §1, §2, §3, §4, §5

[3] = tested on: P. cynomolgi sporozoites; conditions: treated 5 to 7 consecutive days, cited from earlier work
[4] = P. falciparum TM90-C2B, 72 hrs incubation

Compound: CCCCc1cc2c(=O)c(CC)c(C)[nH]c2cc1OCCOc1ccccc1 [Compound 16, 6-butyl-3-ethyl-2-methyl-7-(2-phenoxyethoxy)quinolin-4(1H)-one]
EC50 [1, 4]: 0.15 nM
resistance index RI=EC50(TM90-C2B)/EC50(W2) [1]: 0.08
EC50 [2]: 1.92 nM

Compound: CCCCc1cc2c(=O)c(C(=O)OC)c(C)[nH]c2cc1OCCOc1ccccc1 [Compound 5, Methyl 6-butyl-2-methyl-4-oxo-7-(2-phenoxyethoxy)-1,4-dihydroquinoline-3-carboxylate, reference compound]
EC50 [1, 4]: 11.2 nM
resistance index RI=EC50(TM90-C2B)/EC50(W2) [1]: 223
less potent against TM90-C2B than against W2 [1]: approximately 220
EC50 [2]: 0.05 nM
relapse after 120 days of exposure ([3]; rhesus monkeys inoculated intravenously with sporozoites): no relapse
curative dose ([3]; rhesus monkeys): 15 mg/kg

Compound: CCCCc1cc2c(=O)c(-c3c(C)noc3C)c(C)[nH]c2cc1OCCOc1ccccc1 [Compound 43, 6-butyl-3-(3,5-dimethylisoxazol-4-yl)-2-methyl-7-(2-phenoxyethoxy)quinolin-4(1H)-one]
resistance index RI=EC50(TM90-C2B)/EC50(W2) [1]: pharmaceutically acceptable
less potent against TM90-C2B than against W2 [1]: approximately 5
EC50 [2]: 27 nM

Compound: CCCCc1cc2c(=O)c(-c3cccc(Oc4ccc(F)cc4)c3)c(C)[nH]c2cc1OCCOc1ccccc1 [Compound 36, 6-butyl-3-(3-(4-fluorophenoxy)phenyl)-2-methyl-7-(2-phenoxyethoxy)quinolin-4(1H)-one]
antimalarial activity against TM90-C2B (in words) [1]: inactive
antimalarial activity against W2 (in words) [2]: inactive

Compound: C[C@H]1[C@@H](O)O[C@@H]2O[C@@]3(C)CC[C@H]4[C@H](C)CC[C@@H]1[C@@]24OO3 [DHA, Dihydroartemisinin, reference compound]
EC50 ([1]; TM90, 72 h): 0.9 nM
EC50 [2]: 1.8 nM

EC50 [1, 4]: 764 nM
Compound: CCCCc1cc2c(=O)c(-c3ccccc3)c(C)[nH]c2cc1OCCOc1ccccc1 [Compound 31, 6-butyl-2-methyl-7-(2-phenoxyethoxy)-3-phenylquinolin-4(1H)-one]

melting point: 270 to 271 °C
Compound: CCc1c(C)[nH]c2cc(OCCN3CCOCC3)c(Cl)cc2c1=O [Compound 23, 6-chloro-3-ethyl-2-methyl-7-(2-morpholin-4-yl-ethoxy)-1H-quinolin-4-one]

EC50 [1, 4]: > 170 nM
EC50 [2]: 0.53 nM
Compound: O=C1C(O)=C([C@H]2CC[C@H](c3ccc(Cl)cc3)CC2)C(=O)c2ccccc21 [ATO, atovaquone, reference compound]

Compound: CCCCc1cc2c(=O)c(-c3ccc(OC(F)(F)F)cc3)c(C)[nH]c2cc1OCCOc1ccccc1 [Compound 35, 6-butyl-2-methyl-7-(2-phenoxyethoxy)-3-(4-(trifluoromethoxy)phenyl)quinolin-4(1H)-one]
EC50 [1, 4]: 31 nM
resistance index RI=EC50(TM90-C2B)/EC50(W2) [1]: 1.1
EC50 [2]: 27.9 nM

Compound: CCc1c(C)[nH]c2cc(OCCOc3ccccc3)c(OC)cc2c1=O [Compound 19]
more potent against TM90-C2B compared to 27 [1]: 3 fold
antimalarial activity against W2 (in words) [2]: less active

Compound: CCc1c(C)[nH]c2cc(OCCOc3ccccc3)c(Br)cc2c1=O [Compound 25, 6-bromo-3-ethyl-2-methyl-7-(2-phenoxy-ethoxy)-1H-quinolin-4-one]
antimalarial activity against TM90-C2B (in words) [1]: unaffected or slightly improved
antimalarial activity against W2 (in words) [2]: slightly reduced activities

melting point: 227 to 230 °C
Compound: CCc1c(C)[nH]c2cc(OCCN(C)C)c(Cl)cc2c1=O [Compound 24, 6-chloro-7-(2-dimethylamino-ethoxy)-3-ethyl-2-methyl-1H-quinolin-4-one]

Compound: CCCCc1cc2c(=O)c(-c3ccc(COc4ccc(OC(F)(F)F)cc4)cc3)c(C)[nH]c2cc1OCCOc1ccccc1 [Compound 37, 6-butyl-2-methyl-7-(2-phenoxyethoxy)-3-(4-((4-(trifluoromethoxy)phenoxy)methyl)phenyl) quinolin-4(1H)-one]
antimalarial activity against TM90-C2B (in words) [1]: inactive
antimalarial activity against W2 (in words) [2]: inactive

Compound: CCCCc1cc2c(=O)c(-c3ccncc3)c(C)[nH]c2cc1OCCOc1ccccc1 [Compound 32, 6-butyl-2-methyl-7-(2-phenoxyethoxy)-3-(pyridin-4-yl)quinolin-4(1H)-one]
antimalarial activity against TM90-C2B (in words) [1]: moderate activity in low micromolar or high nanomolar range
antimalarial activity against W2 (in words) [2]: moderate activity in low micromolar or high nanomolar range

Compound: CCCCc1cc2c(=O)c(-c3cccnc3)c(C)[nH]c2cc1OCCOc1ccccc1 [Compound 33, 6-butyl-2-methyl-7-(2-phenoxyethoxy)-3-(pyridin-3-yl)quinolin-4(1H)-one]
antimalarial activity against TM90-C2B (in words) [1]: moderate activity in low micromolar or high nanomolar range
antimalarial activity against W2 (in words) [2]: moderate activity in low micromolar or high nanomolar range

Compound: CCc1c(C)[nH]c2cc(OCOC)c(Cl)cc2c1=O [Compound 20, 6-chloro-3-ethyl-7-methoxymethoxy-2-methyl-1H-quinoline-4-one]
less active against W2 in comparison to 17 [2]: approximately 4 fold

Compound: CCc1c(C)[nH]c2cc(OCCOc3ccccc3)c(Cl)cc2c1=O [Compound 17, 6-chloro-3-ethyl-2-methyl-7-(2-phenoxy-ethoxy)-1H-quinolin-4-one]
antimalarial activity against TM90-C2B (in words) [1]: unaffected or slightly improved
antimalarial activity against W2 (in words) [2]: slightly reduced activities

Compound: CCc1c(C)[nH]c2cc(OCCOc3ccccc3)c(C)cc2c1=O [Compound 18, 3-ethyl-2,6-dimethyl-7-(2-phenoxy-ethoxy)-1H-quiolin-4-one]
more potent against TM90-C2B compared to 27 [1]: 3 fold
antimalarial activity against W2 (in words) [2]: less active

Compound: CCc1c(C)[nH]c2cc(OCCCN3CCN(c4ccccc4)CC3)c(Cl)cc2c1=O [Compound 26, 6-chloro-3-ethyl-2-methyl-7-[3-(4-phenyl-piperazin-1-yl)-propoxy]-1H-quinolin-4-one]
less active against W2 in comparison to 17 [2]: approximately 4 fold

EC50 [1, 4]: 71.3 nM
EC50 [2]: 104 nM
Compound: CCc1c(C)[nH]c2cc(OCCOc3ccccc3)ccc2c1=O [Compound 27, 3-ethyl-2-methyl-7-(2-phenoxyethoxy)quinolin-4(1H)-one]

Compound: CCCCc1cc2c(=O)c(-c3ccc(C(F)(F)F)cc3F)c(C)[nH]c2cc1OCCOc1ccccc1 [Compound 41, 6-butyl-3-(2-fluoro-4-(trifluoromethyl)phenyl)-2-methyl-7-(2-phenoxyethoxy)quinolin-4(1H)-one]
resistance index RI=EC50(TM90-C2B)/EC50(W2) [1]: pharmaceutically acceptable
